Read-outs that look alike come from different tables or passages of the source.
Assays:
[1] = Ionization and stability in aqueous alkaline processing composition; format: physicochemical
Source text: However, it has been shown by experimentation that incorporating compound XI in a film unit according to the invention will provide advantageous results. Thus, it would appear that compound XI undergoes a change in aqueous alkaline processing composition and that the acetyl substituent is a precursor of a group which has the requisite properties described above which provide the desired results. […] It is therefore preferred to incorporate the compound elsewhere in the film unit, for example, in the photosensitive element.

[2] = Solubility of silver salts in presence of excess anion (Table III); format: physicochemical
Method: The solubilities of the silver salts of PMT and compound II in the presence of excess amounts of their anions were measured at pH 7.0 and 13.5. Each solution was 4×10^-3 molar in silver. The results are shown in Table III wherein the solubility data is expressed in μmoles/liter of total silver.

[3] = Solubility product of the silver salts (Table II); format: physicochemical; settings: for Ksp: silver salt
Source text: Solubility product measurements were made for the silver salt of phenylmercaptotetrazole (PMT) at pH 13.5 and for the silver salt of compound II at pH 7 and pH 13.5 (above and below the pka of the oxime substituent).

[4] = silver salt, pH 7; Z. C. H. Tan, Photogr. Sci. Eng. 19, 17 (1975); cited from earlier work

stability in aqueous alkaline processing composition ([1]; about a week or more in processing composition)	Ksp ([3]; pH 7)	Ksp ([3]; pH 13.5)	SMILES	ionization of acetyl group to an anion ([1]; aqueous alkaline photographic processing composition)	silver solvent behavior at high pH [2]	effect of pH / ionization on solubility of the silver salt ([3]; pH 7 vs pH 13.5)	Ksp [4]
long term instability characteristics	–	–	CC(=O)c1ccc(-n2nnnc2S)cc1 [XI]	does not ionize to any appreciable extent	–	–	–
–	~ 1 × 10^-16	2 × 10^-15	CC(=NO)c1ccc(-n2nnnc2S)cc1 [Compound II]	–	weak to moderate silver solvent at high pH	increased the solubility of the silver salt of compound II by an order of magnitude	–
–	–	4 × 10^-16	Sc1nnnn1-c1ccccc1 [PMT, 1-phenyl-5-mercaptotetrazole, reference compound]	–	PMT is not	–	3 × 10^-16
